Experimental data published in patent US10836734B2, “Spiroquinone derivative compound, production method thereof, and pharamaceutical composition for preventing or treating neurological disorders which contains same as active ingredient” (GACHON UNIVERSITY OF INDUSTRY-ACADEMIC COOPERATION …, priority 2016, dated 2020).

Legend:
[1] = molecular target: acetylcholine esterase (eeAChE, EC 3.1.1.7) (Electrophorus electricus, UniProt O42275); assay: Acetylcholine esterase inhibition activity (ACh quantification colorimetric assay kit); type: biochemical; settings: read-out: Residual activity of acetylcholine esterase (%); for remaining activity at 10 µM: 10 μM compound; for remaining activity at 30 µM: 30 μM compound
Sequence of acetylcholine esterase (eeAChE, EC 3.1.1.7) (O42275 24-633): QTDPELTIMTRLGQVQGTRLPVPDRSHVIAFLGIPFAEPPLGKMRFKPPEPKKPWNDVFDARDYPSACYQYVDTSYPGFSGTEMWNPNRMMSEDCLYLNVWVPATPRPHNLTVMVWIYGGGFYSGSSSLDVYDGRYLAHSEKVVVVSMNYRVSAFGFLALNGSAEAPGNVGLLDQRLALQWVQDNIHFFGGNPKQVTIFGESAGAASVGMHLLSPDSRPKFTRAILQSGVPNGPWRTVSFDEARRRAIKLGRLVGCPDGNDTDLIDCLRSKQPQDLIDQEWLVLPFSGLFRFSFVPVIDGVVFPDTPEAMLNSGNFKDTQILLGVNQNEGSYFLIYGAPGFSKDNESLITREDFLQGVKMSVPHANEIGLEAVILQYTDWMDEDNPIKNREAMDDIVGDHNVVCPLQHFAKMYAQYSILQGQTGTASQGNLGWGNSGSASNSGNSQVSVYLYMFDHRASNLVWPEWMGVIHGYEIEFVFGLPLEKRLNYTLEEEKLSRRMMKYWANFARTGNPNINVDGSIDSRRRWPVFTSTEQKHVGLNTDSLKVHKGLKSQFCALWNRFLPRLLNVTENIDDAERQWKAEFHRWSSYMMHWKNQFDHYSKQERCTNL
Method: Particularly, a quantitative kit (ACh quantification colorimetric assay kit from BioVision) was prepared in order to quantify acetylcholine esterase (eeAChE, EC 3.1.1.7) and acetylcholine chloride (ACh) of Electrophorus electricus and acetylcholine. To measure the enzyme inhibition activity of the compound of the example of the invention, the following experiment was performed based on the standardized method of the manufacturer of the Ach kit (Draczkowski, P. et al. Bba-Gen Subjects 1860, 967-974, doi:10.1016/j.bbagen.2015.11.006 (2016)).
First, acetylcholine esterase (eeAChE, EC 3.1.1.7) was dissolved in […] Tris-HCL buffer at the concentration of 5 μM. Acetylcholine chloride was dissolved in 20 mM Tris-HCL buffer, resulting in the preparation of a Tris-HCL aqueous solution containing 10 μM acetylcholine chloride. The compound of the example was prepared in different concentrations of 10 μM and 30 μM. The prepared acetylcholine chloride solution and the compound solution were mixed in 20 μM acetylcholine esterase. 20 minutes and 30 minutes after mixing, the color change of the quantitative kit was measured at 570 nm in order to evaluate the inhibitory effect of the compound particularly to inhibit acetylcholine esterase that decomposes acetylcholine into choline.
All the experiments were repeated at least twice, from which the mean values and the standard deviations were calculated.

[2] = test system: murine microglial BV-2 cells; assay: Quantification of nitrite generation in LPS treated nerve cell line; type: cell-based; settings: Mus musculus; LPS treated BV-2 cells; FIG. 5; read-out: IC50 for nitric oxide
Method: Particularly, in order to quantify the nitrite generation in the LPS treated nerve cell line, nitrite generated from nitric oxide secreted therein was quantified. With the quantified nitrite, the inhibition of microglial activation and the neuron protection effect thereby were examined. The nerve cell line (BV2) was treated with LPS ([…]), and then treated with the compound of the present invention at different concentrations of 0.01 μM, 0.1 μM and 1 μM, or 1 μM, 5 μM and 10 μM (Con: DMSO treated group (not treated with the compound of the invention and LPS), LPS: LPS treated group ([…])).
Further, IC50 was calculated from the quantification of nitric oxide measured by concentration gradient in FIGS. 1 and 3, and the results are shown in FIG. 5.

Row | SMILES | remaining activity at 10 µM [1] [%] | remaining activity at 30 µM [1] [%] | IC50 [2] [nM]
1 | CC1COC2(C=CC(=O)C=C2)N(c2ccccc2)C1=O (stereo not drawn) [Example 2, 3-methyl-5-phenyl-1-oxa-5-azaspiro[5,5]undeca-7,10-diene-4,9-dione] | 29.7 | 7.03 | –
2 | C=CCC1COC2(C=CC(=O)C=C2)N(c2ccccc2)C1=O (stereo not drawn) [Example 3, 3-allyl-5-phenyl-1-oxa-5-azaspiro[5,5]undeca-7,10-diene-4,9-dione] | 30.3 | -2.03 | –
3 | O=C1C=CC2(C=C1)OCC(Cc1ccccc1)C(=O)N2c1ccccc1 (stereo not drawn) [Example 6, 3-benzyl-5-phenyl-1-oxa-5-azaspiro[5,5]undeca-7,10-diene-4,9-dione] | 40.2 | 6.07 | –
4 | O=C1C=CC2(C=C1)OCC(Cc1ccc(F)cc1)C(=O)N2c1ccccc1 (stereo not drawn) [Example 7, 3-(4-fluoro-benzyl)-5-phenyl-1-oxa-5-azaspiro[5,5]undeca-7,10-diene-4,9-dione] | 46.7 | 4.74 | –
5 | O=C1C=CC2(C=C1)OCC(Cc1ccc(Br)cc1)C(=O)N2c1ccccc1 (stereo not drawn) [Example 10, 3-(4-bromo-benzyl)-5-phenyl-1-oxa-5-azaspiro[5,5]undeca-7,10-diene-4,9-dione] | 27.3 | 12.9 | –
6 | O=C1C=CC2(C=C1)OCC(Cc1ccc(C(F)(F)F)cc1)C(=O)N2c1ccccc1 (stereo not drawn) [Example 11, 3-(4-trifluoromethyl-benzyl)-5-phenyl-1-oxa-5-azaspiro[5,5]undeca-7,10-diene-4,9-dione] | 69.4 | 22.1 | –
7 | O=C1C=CC2(C=C1)OCC(Cc1cc(C(F)(F)F)cc(C(F)(F)F)c1)C(=O)N2c1ccccc1 (stereo not drawn) [Example 14, 3-(3,5-ditrifluoromethyl-benzyl)-5-phenyl-1-oxa-5-azaspiro[5,5]undeca-7,10-diene-4,9-dione] | – | – | ~300
8 | O=C1C=CC2(C=C1)OCC(Cc1ccccc1)C(=O)N2c1cccnc1 (stereo not drawn) [Example 19, 3-benzyl-5-(pyridine-3-yl)-1-oxa-5-azaspiro[5,5]undeca-7,10-diene-4,9-dione] | 66.1 | 8.07 | –
9 | CC1COC2(C=CC(=O)C(F)=C2)N(c2ccccc2)C1=O (stereo not drawn) [Example 22, 3-methyl-8-fluoro-5-phenyl-1-oxa-5-azaspiro[5,5]undeca-7,10-diene-4,9-dione] | 51.6 | 2.47 | –
10 | C=CCC1COC2(C=CC(=O)C(F)=C2)N(c2ccccc2)C1=O (stereo not drawn) [Example 23, 3-allyl-8-fluoro-5-phenyl-1-oxa-5-azaspiro[5,5]undeca-7,10-diene-4,9-dione] | 38.1 | 5.64 | –
11 | O=C1C=CC2(C=C1F)OCC(Cc1ccccc1)C(=O)N2c1ccccc1 (stereo not drawn) [Example 24, 3-benzyl-8-fluoro-5-phenyl-1-oxa-5-azaspiro[5,5]undeca-7,10-diene-4,9-dione] | 35.6 | 8.89 | –
12 | CC1=CC2(C=CC1=O)OCC(C)C(=O)N2c1ccccc1 (stereo not drawn) [Example 25, 3,8-dimethyl-5-phenyl-1-oxa-5-azaspiro[5,5]undeca-7,10-diene-4,9-dione] | 20.9 | 8.15 | –
13 | CC1=CC2(C=CC1=O)OCC(Cc1ccccc1)C(=O)N2c1ccccc1 (stereo not drawn) [Example 28, 3-benzyl-8-methyl-5-phenyl-1-oxa-5-azaspiro[5,5]undeca-7,10-diene-4,9-dione] | 55.4 | 3.08 | –
14 | CN1C(=O)C(Cc2ccccc2)COC12C=CC(=O)C=C2 (stereo not drawn) [Example 33, 3-benzyl-5-methyl-1-oxa-5-azaspiro[5,5]undeca-7,10-diene-4,9-dione] | 50.5 | 2.08 | –
